Data reported in US6562868B1, “Method for treatment of female sexual dysfunction” (Synphora AB, priority 1999, dated 2003).

Legend:
[1] = system: cat eyes; assay: Irritant effect in cat eyes (behavioural model, degree of eyelid closure); assay type: in vivo; conditions: for irritant effect in words, compared to PGE1-isopropyl ester: even at doses 1000 times higher than PGE1-isopropyl ester
Experimental: (§1) The effect of the test compounds on cavernous tissue was tested using penile tissue. As mentioned previously both in the male and female the genitals contain cavernous tissue, and the penile tissue can therefore be used as model for genital cavernous tissue. The general blood vessel relaxing effect of the test compounds was studied by investigating the immediate blood pressure decrease in rats upon intravenous infusion of the test compounds. The acute drop in blood pressure reflects a peripheral vasodilation in the animals brought about by the test compounds. The general irritative effect of the test compounds was studied in the cat eye which is very sensitive to noxious stimuli.
The irritant effect of the prostaglandin analogues was tested using a behavioural model in cats. In this model the irritant effect on the eye is studied by registering the degree of eyelid closure and the behaviour of the animals. Compounds that cause discomfort and pain in the eye cause the animals to close their eyes. The analogues were applied as carboxylic acid esters, to enhance bioavailability, topically on the eye as a single dose at different dose levels. The animals were then followed for several hours at regular intervals. Each compound and dose was tested on a group of 3-6 cats. At least 3 days elapsed between two consecutive tests on the same animals. An arbitrary scale from 0 (absence of irritation) to 3 (marked irritation), with half steps was used.

[2] = system: human corpus cavernosum tissue; assay: Relaxation of isolated human penile cavernous tissue precontracted with norepinephrine, normalized to carbachol; assay type: cell-based; conditions: FIG. 1, parallel curves; about half to one third as potent as PGE1
Experimental: as §1
Human penile cavernous tissue was obtained fresh from surgery, and representative tissue samples were mounted in smooth muscle tissue baths containing a modified Kreb's solution consisting of NaCl 119 mM, KCl 4.6 mM, MgCl2 1.2 mM, NaH2PO4 1.2 mM, NaHCO3 15 mM, CaCl2 1.5 mM and glucose 11 mM. The solution also contained indomethacin at a final concentration of about 3 μM. The solution was continuously bubbled by 95% O2 and 5% CO2, and the temperature was kept at 37° C. […]

[3] = system: rabbit eye; conditions: rabbits; Hall and Jaitly, 1977; cited from earlier work
[4] = system: rabbit penile blood vessels; assay: Vasorelaxation of isolated rabbit penile blood vessel ring segments in a small vessel myograph, normalized to papaverine; assay type: cell-based; conditions: FIG. 2; precontracted with 10^−6 M norepinephrine
Experimental: To study the effect of the PGE1 and […]-OH-PGE2 on the penile vasculature, penile blood vessels of the rabbit were isolated and mounted as ring segments in a small vessel myograph (J.P. Trading, Denmark) containing a solution consisting of NaCl 119 mM, KCl 4.7 mM, CaCl2 1.5 mM, MgSO4 1.17 mM, KH2PO4 1.18 mM, NaHCO3 25 mM, EDTA 0.027 mM and glucose 11 mM. The solution also contained indomethacin at a final concentration of about 3 μM, and was continuously bubbled by 95% O2 and 5%CO2. The temperature was kept constant at 37° C. The vessels were stretched and then precontracted using 10^-6 M norepinephrine, and the vasorelaxant effect of the prostaglandin analogues was normalized by comparing it to that of papaverine in the same preparation. Cumulative concentration-response curves were constructed for the analogues.

[5] = system: cat eye; assay: Intraocular pressure in cats by pneumatonometry after topical administration; assay type: in vivo; conditions: 1 hour after topical administration; 3 cats, local anaesthesia; before treatment 16.3+/−0.9 mmHg; control eyes 15.7+/−0.7
Experimental: To confirm that 19R-OH-PGE2-methyl ester, which is more hydrophilic than PGE1-isopropyl ester, indeed penetrates into the cornea and the intraocular parts of the eye we measured the intraocular pressure in 3 cats under local anaesthesia before and 1 hour after topical administration of the prostaglandin to the eye. The intraocular pressure was measured by pneumatonometry. One eye was treated with the test compound and the other eye received the vehicle only. In the eyes treated topically with 19R-OH-PGE2-methyl ester the intraocular pressure decreased from 16.3+/−0.9 mmHg to 12.7+/−1.2 mmHg, whereas it was 16.3+/−0.9 mmHg and 15.7+/−0.7 mmHg in the control eyes at the same time points. It is well known that prostaglandins reduce the intraocular pressure in cats (Bito et al., 1989), and it can thus be taken as an evidence that the drug has penetrated into the eye. […] Thus the absence of pain and irritation after administration of 18RS-OH-PGE2, 19R-OH-PGE2 and 20-OH-PGE2 cannot be explained en the basis of increased hydrophilicity and poor bioavailability.

SMILES: CCC(O)CC[C@H](O)/C=C/[C@H]1[C@H](O)CC(=O)[C@@H]1C/C=C\CCCC(=O)OC (stereo partly drawn) [18RS-OH—PGE2-me, 18RS-hydroxy PGE2 methyl ester]
- irritant effect in words, compared to PGE1-isopropyl ester [1]: no or markedly reduced irritant effect

SMILES: C[C@@H](O)CCC[C@H](O)/C=C/[C@H]1[C@H](O)CC(=O)[C@@H]1C/C=C\CCCC(=O)O [19R-OH-PGE2, 19R-hydroxy-prostaglandin E2]
- factor by which concentration-response curve differs from PGE1 (less potent) [2]: 2-3
- irritant effect on ocular structures [3]: inducing swelling of the ocular structures
- lid closure [3]: does not cause lid closure
- vasodilatory effect (efficacy and potency, PGE1 versus 19R-OH-PGE2) [4]: the same efficacy in inducing vasodilatation and were also about equipotent
- irritation by swelling of the ocular structures ([1]; cat eye): no evidence of such irritation

SMILES: COC(=O)CCC/C=C\C[C@H]1C(=O)C[C@@H](O)[C@@H]1/C=C/[C@@H](O)CCC[C@@H](C)O [19R-OH—PGE2-me, 19-R-hydroxy-prostaglandin E2-methyl ester]
- intraocular pressure [5]: 12.7+/−1.2 mmHg
- irritant effect in words, compared to PGE1-isopropyl ester [1]: no or markedly reduced irritant effect

SMILES: CCCCC[C@H](O)/C=C/[C@H]1[C@H](O)CC(=O)[C@@H]1CCCCCCC(=O)O [PGE1, reference compound]
- vasodilatory effect (efficacy and potency, PGE1 versus 19R-OH-PGE2) [4]: the same efficacy in inducing vasodilatation and were also about equipotent
